How the values were obtained:
Assay type in all cases: in vivo
[1] = system: pigweed (Amaranthus retroflexus); assay: Test A preemergence, pigweed; conditions: for Plant response rating, Pigweed: 0 to 100 scale (0 no effect, 100 complete control); for Pigweed plant response rating: visual injury on 0 to 100 scale (0 no effect, 100 complete control), approximately 10 days
Excerpt: (§1) Seeds of plant species selected from barnyardgrass (Echinochloa crus-galli), kochia (Bassia scoparia), ragweed (common ragweed, Ambrosia artemisiifolia), Ryegrass, Italian (Italian ryegrass, Lolium multiflorum), Foxtail, Giant (giant foxtail, Setaria faberi), and pigweed (Amaranthus retroflexus) were planted into a blend of loam soil and sand and treated preemergence with a directed soil spray using test chemicals formulated in a non-phytotoxic solvent mixture which included a surfactant. At the same time, plants selected from these weed species and also wheat (Triticum aestivum), corn (Zea mays), blackgrass (Alopecurus myosuroides), and galium (catchweed bedstraw, Galium aparine) were planted in pots containing the same blend of loam soil and sand and treated with postemergence applications of test chemicals formulated in the same manner. Plants ranged in height from 2 to 10 cm and were in the one- to two-leaf stage for the postemergence treatment. […] A dash (-) response means no test result.

[2] = system: Foxtail, Giant (giant foxtail, Setaria faberi); assay: Test A postemergence, Foxtail, Giant; conditions: Postemergence, 0 to 100 scale (0 no effect, 100 complete control); for Plant response rating, Foxtail, Giant: 125 g ai/ha; for Foxtail, Giant plant response rating: 500 g ai/ha, visual injury vs untreated controls after approx. 10 days
Excerpt: as §1

[3] = system: ragweed (common ragweed, Ambrosia artemisiifolia); assay: Test A preemergence, ragweed; conditions: Preemergence; for Plant response rating, Ragweed: 0 to 100 scale (0 no effect, 100 complete control); for Ragweed plant response rating: visual injury on 0 to 100 scale (0 no effect, 100 complete control), approximately 10 days
Excerpt: as §1

[4] = system: wheat (Triticum aestivum); assay: Test A postemergence, wheat; conditions: Postemergence, 0 to 100 scale (0 no effect, 100 complete control); for Plant response rating, Wheat: 125 g ai/ha; for Wheat plant response rating: 500 g ai/ha, visual injury vs untreated controls after approx. 10 days
Excerpt: as §1

[5] = system: galium (catchweed bedstraw, Galium aparine); assay: Test A postemergence, galium; conditions: Postemergence, 0 to 100 scale (0 no effect, 100 complete control); for Plant response rating, Galium: 125 g ai/ha; for Galium plant response rating: 500 g ai/ha, visual injury vs untreated controls after approx. 10 days
Excerpt: as §1

[6] = system: ragweed (common ragweed, Ambrosia artemisiifolia); assay: Test A postemergence, ragweed; conditions: Postemergence, 0 to 100 scale (0 no effect, 100 complete control); for Plant response rating, Ragweed: 125 g ai/ha; for Ragweed plant response rating: 500 g ai/ha, visual injury vs untreated controls after approx. 10 days
Excerpt: as §1

[7] = system: Ryegrass, Italian (Italian ryegrass, Lolium multiflorum); assay: Test A preemergence, Ryegrass, Italian; conditions: Preemergence; for Plant response rating, Ryegrass, Italian: 0 to 100 scale (0 no effect, 100 complete control); for Ryegrass, Italian plant response rating: visual injury on 0 to 100 scale (0 no effect, 100 complete control), approximately 10 days
Excerpt: as §1

[8] = system: kochia (Bassia scoparia); assay: Test A postemergence, kochia; conditions: Postemergence, 0 to 100 scale (0 no effect, 100 complete control); for Plant response rating, Kochia: 125 g ai/ha; for Kochia plant response rating: 500 g ai/ha, visual injury vs untreated controls after approx. 10 days
Excerpt: as §1

[9] = system: Ryegrass, Italian (Italian ryegrass, Lolium multiflorum); assay: Test A postemergence, Ryegrass, Italian; conditions: Postemergence, 0 to 100 scale (0 no effect, 100 complete control); for Plant response rating, Ryegrass, Italian: 125 g ai/ha; for Ryegrass, Italian plant response rating: 500 g ai/ha, visual injury vs untreated controls after approx. 10 days
Excerpt: as §1

[10] = system: barnyardgrass (Echinochloa crus-galli); assay: Test A preemergence, barnyardgrass; conditions: Preemergence; for Plant response rating, Barnyardgrass: 0 to 100 scale (0 no effect, 100 complete control); for Barnyardgrass plant response rating: visual injury on 0 to 100 scale (0 no effect, 100 complete control), approximately 10 days
Excerpt: as §1

[11] = system: blackgrass (Alopecurus myosuroides); assay: Test A postemergence, blackgrass; conditions: Postemergence, 0 to 100 scale (0 no effect, 100 complete control); for Plant response rating, Blackgrass: 125 g ai/ha; for Blackgrass plant response rating: 500 g ai/ha, visual injury vs untreated controls after approx. 10 days
Excerpt: as §1

[12] = system: pigweed (Amaranthus retroflexus); assay: Test A postemergence, pigweed; conditions: Postemergence, 0 to 100 scale (0 no effect, 100 complete control); for Plant response rating, Pigweed: 125 g ai/ha; for Pigweed plant response rating: 500 g ai/ha, visual injury vs untreated controls after approx. 10 days
Excerpt: as §1

[13] = system: corn (Zea mays); assay: Test A postemergence, corn; conditions: Postemergence, 0 to 100 scale (0 no effect, 100 complete control); for Plant response rating, Corn: 125 g ai/ha; for Corn plant response rating: 500 g ai/ha, visual injury vs untreated controls after approx. 10 days
Excerpt: as §1

[14] = system: kochia (Bassia scoparia); assay: Test A preemergence, kochia; conditions: Preemergence; for Plant response rating, Kochia: 0 to 100 scale (0 no effect, 100 complete control); for Kochia plant response rating: visual injury on 0 to 100 scale (0 no effect, 100 complete control), approximately 10 days
Excerpt: as §1

[15] = system: Foxtail, Giant (giant foxtail, Setaria faberi); assay: Test A preemergence, Foxtail, Giant; conditions: Preemergence; for Plant response rating, Foxtail, Giant: 0 to 100 scale (0 no effect, 100 complete control); for Foxtail, Giant plant response rating: visual injury on 0 to 100 scale (0 no effect, 100 complete control), approximately 10 days
Excerpt: as §1

[16] = 125 g ai/ha, visual injury, approx. 10 days

SMILES | Foxtail, Giant plant response rating [2] | Wheat plant response rating [4] | Galium plant response rating [5] | Ragweed plant response rating [6] | Kochia plant response rating [8] | Ryegrass, Italian plant response rating [9] | Plant response rating, Barnyardgrass ([10]; 500 g ai/ha) | Blackgrass plant response rating [11] | Pigweed plant response rating [12] | Corn plant response rating [13] | Pigweed plant response rating ([1]; 125 g ai/ha) | Plant response rating, Pigweed ([1]; 500 g ai/ha) | Plant response rating, Foxtail, Giant ([2]; visual injury approx. 10 days) | Ragweed plant response rating ([3]; 125 g ai/ha) | Plant response rating, Ragweed ([3]; 500 g ai/ha) | Plant response rating, Wheat ([4]; visual injury approx. 10 days) | Plant response rating, Galium ([5]; visual injury approx. 10 days) | Plant response rating, Ragweed ([6]; visual injury approx. 10 days) | Ryegrass, Italian plant response rating ([7]; 125 g ai/ha) | Plant response rating, Ryegrass, Italian ([7]; 500 g ai/ha) | further results
Cc1cc(C)c(C2=NOC(C)(CCl)C2)cc1NS(=O)(=O)C(F)(F)F (stereo not drawn) [Compound 226] | 60 | 60 | 80 | 90 | 70 | 60 | 100 | 50 | 80 | 70 | – | – | – | – | – | – | – | – | – | – | Plant response rating, Pigweed [1, 16]: 80; Pigweed plant response rating ([1]; 500 g ai/ha): 100; Plant response rating, Foxtail, Giant [2]: 20; Plant response rating, Ragweed [3, 16]: 30; Ragweed plant response rating ([3]; 500 g ai/ha): 90; Plant response rating, Wheat [4]: 0; Plant response rating, Galium [5]: 60; Plant response rating, Ragweed [6]: 30; Plant response rating, Ryegrass, Italian [7, 16]: 90; Ryegrass, Italian plant response rating ([7]; 500 g ai/ha): 100; Plant response rating, Kochia [8]: 10; Plant response rating, Ryegrass, Italian [9]: 30; Plant response rating, Barnyardgrass [10, 16]: 90; Plant response rating, Blackgrass [11]: 20; Plant response rating, Pigweed [12]: 30; Plant response rating, Corn [13]: 0; Plant response rating, Kochia [14, 16]: 40; Kochia plant response rating ([14]; 500 g ai/ha): 90; Plant response rating, Foxtail, Giant [15, 16]: 90; Foxtail, Giant plant response rating ([15]; 500 g ai/ha): 100
Cc1cc(-c2cc(N(S(=O)(=O)C(F)(F)F)S(=O)(=O)C(F)(F)F)c(C)cc2C)c(=O)n(C)n1 [Compound 75] | 90 | 70 | 90 | 50 | 80 | 60 | 100 | 70 | 80 | 0 | 80 | 100 | 30 | 20 | 80 | 40 | 70 | 0 | 80 | 100 | Plant response rating, Kochia ([8]; visual injury approx. 10 days): 20; Plant response rating, Ryegrass, Italian ([9]; visual injury approx. 10 days): 20; Barnyardgrass plant response rating ([10]; 125 g ai/ha): 90; Plant response rating, Blackgrass ([11]; visual injury approx. 10 days): 30; Plant response rating, Pigweed ([12]; visual injury approx. 10 days): 40; Plant response rating, Corn ([13]; visual injury approx. 10 days): 0; Kochia plant response rating ([14]; 125 g ai/ha): 80; Plant response rating, Kochia ([14]; 500 g ai/ha): 100; Foxtail, Giant plant response rating ([15]; 125 g ai/ha): 100; Plant response rating, Foxtail, Giant ([15]; 500 g ai/ha): 100
Cc1cc(C)c(N(S(=O)(=O)C(F)(F)F)S(=O)(=O)C(F)(F)F)cc1-c1ccnn(C)c1=O [Compound 76] | 90 | 80 | 100 | 90 | 90 | 80 | 90 | 50 | 90 | 70 | 50 | 100 | 90 | 70 | 90 | 40 | 90 | 60 | 60 | 100 | Plant response rating, Kochia ([8]; visual injury approx. 10 days): 50; Plant response rating, Ryegrass, Italian ([9]; visual injury approx. 10 days): 70; Barnyardgrass plant response rating ([10]; 125 g ai/ha): 90; Plant response rating, Blackgrass ([11]; visual injury approx. 10 days): 50; Plant response rating, Pigweed ([12]; visual injury approx. 10 days): 70; Plant response rating, Corn ([13]; visual injury approx. 10 days): 0; Kochia plant response rating ([14]; 125 g ai/ha): 60; Plant response rating, Kochia ([14]; 500 g ai/ha): 90; Foxtail, Giant plant response rating ([15]; 125 g ai/ha): 100; Plant response rating, Foxtail, Giant ([15]; 500 g ai/ha): 100
